Data published in patent publication US8536187B2 (Gilead Sciences, Inc., priority 2008, dated 2013).

Assays:
[1] = tested on: HCV replicon in human hepatoma Huh-7 cell line; assay: Anti-HCV replicon assay, EC50 (luciferase luminescence); format: cell-based; settings: Hepatitis C virus, Huh-7, 72 h
Method in brief: (§1)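 Cytotoxicity (CC50) read by CellTiter-Glo luminescence after 10 min, and antiviral EC50 by luciferase signal after 30 min lysis with substrate, both at room temperature. Preceding step: 3-day exposure of 6000 Huh-7 HCV replicon cells per well to compound dilution series at 37° C, 5% CO2, in 0.5% DMSO.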

[2] = CC50 assay (CellTiter-Glo) in Huh-7 HCV replicon cells; format: cell-based; settings: human, Table 2, 3 days incubation
Method in brief: as §1

| Structure (SMILES) | EC50 [1] [nM] | CC50 at 3 days [2] [nM] |
| --- | --- | --- |
| C[C@@H](Nc1nc(NC2(C(F)(F)F)CC2)c2nc(C#CC3CC3)ccc2n1)c1ccc(S(N)(=O)=O)cc1 [Example 69, (R)-4-(1-(6-(2-cyclopropylethynyl)-4-(1-(trifluoromethyl)cyclopropyl-amino)pyrido[3,2-d]pyrimidin-2-ylamino)ethyl)benzene-sulfonamide] | < 100 | > 10000 |
| CC(C)Oc1nc(NCc2ccc(-n3cncn3)cc2)nc2ccc(C#CC3CC3)nc12 [Example 308, N-(4-(1H-1,2,4-triazol-1-yl)benzyl)-6-(2-cyclopropyl-ethynyl)-4-isopropoxypyrido [3,2-d]pyrimidin-2-amine] | 250 to 2000 | > 10000 |
| COc1ccc(-c2ccc3nc(NCc4ccc(S(N)(=O)=O)cc4)nc(NC4(C(F)(F)F)CC4)c3n2)cc1C(F)(F)F [Example 75, 4-((6-(4-methoxy-3-(trifluoromethyl)phenyl)-4-(1-(trifluoromethyl)cyclopropyl-amino)pyrido[3,2-d]pyrimidin-2-ylamino)methyl)benzene-sulfonamide] | 250 to 2000 | > 10000 |
| COc1ccc(-c2ccc3nc(NCc4ccc(F)c(F)c4)nc(NC4(C(F)(F)F)CC4)c3n2)cc1S(C)(=O)=O [Example 44, N^2-(3,4-difluorobenzyl)-6-(4-methoxy-3-(methylsulfonyl)phenyl)-N^4-(1-(trifluoromethyl)cyclopropyl)pyrido[3,2-d] pyrimidine-2,4-diamine] | < 100 | 1000 to 10000 |
| CC1(Oc2nc(NCc3ccc(-n4cncn4)cc3)nc3ccc(-c4ccc(OC5CC5)nc4)nc23)CC1 [Example 247, N-(4-(1H-1,2,4-triazol-1-yl)benzyl)-6-(6-cyclopropoxy-pyridin-3-yl)-4-(1-methylcyclo-propoxy)pyrido[3,2-d]pyrimidin-2-amine] | < 100 | 1000 to 10000 |
| CCOc1ccc(-c2ccc3nc(NCc4cc(Cl)cc(S(N)(=O)=O)c4)nc(NCC(F)(F)F)c3n2)cn1 [Example 233, 3-chloro-5-((6-(6-ethoxypyridin-3-yl)-4-(2,2,2-trifluoroethylamino)pyrido [3,2-d]pyrimidin-2-ylamino)methyl)benzenesulfonamide] | < 100 | 1000 to 10000 |
| NS(=O)(=O)c1ccc(Cl)c(CNc2nc(NC3(C(F)(F)F)CC3)c3nc(-c4ccc(F)cc4)ccc3n2)c1 [Example 41, 4-chloro-3-((6-(4-fluorophenyl)-4-(1-(trifluoromethyl)cyclopropyl-amino)pyrido[3,2-d]pyrimidin-2-ylamino)methyl)benzene-sulfonamide] | 100 to 250 | 1000 to 10000 |
| C[C@@H](Nc1nc(OC2CCC2)c2nc(-c3cccc(S(C)(=O)=O)c3)ccc2n1)c1ccc(S(N)(=O)=O)cc1 [Example 200, 4-((R)-1-(4-cyclobutoxy-6-(3-(methylsulfonyl)phenyl)pyrido [3,2-d]pyrimidin-2-ylamino)ethyl)benzenesulfonamide] | 100 to 250 | > 10000 |
| C[C@H](Nc1nc(NCc2ccc(S(N)(=O)=O)cc2)nc2ccc(C#CC3CC3)nc12)C(F)(F)F [Example 290, (S)-4-((6-(2-cyclopropyl-ethynyl)-4-(1,1,1-trifluoro-propan-2-ylamino)pyrido [3,2-d]pyrimidin-2-ylamino)methyl)benzene-sulfonamide] | < 100 | 1000 to 10000 |
| C#Cc1ccc2nc(NCc3ccc(S(N)(=O)=O)cc3)nc(OC3CC3)c2n1 [Example 300, 4-((4-cyclopropoxy-6-ethynylpyrido[3,2-d]pyrimidin-2-ylamino)methyl) benzenesulfonamide] | 250 to 2000 | 1000 to 10000 |
| C[C@@H](Nc1nc(NC2(C(F)(F)F)CC2)c2nc(-c3cccc(S(C)(=O)=O)c3)ccc2n1)c1ccc(-n2cncn2)cc1 [Example 47, N^2-((R)-1-(4-(1H-1,2,4-triazol-1-yl)phenyl)ethyl)-6-(3-(methylsulfonyl)phenyl)-N^4-(1-(trifluoromethyl)cyclopropyl) pyrido[3,2-d]pyrimidine-2,4-diamine] | < 100 | 1000 to 10000 |
| Fc1cc(-c2ccc3nc(NCc4ccc(-n5cncn5)cc4)nc(NC4(C(F)(F)F)CC4)c3n2)cnc1NC1CC1 [Example 65, N^2-(4-(1H-1,2,4-triazol-1-yl)benzyl)-6-(6-(cyclopropylamino)-5-fluoropyridin-3-yl)-N^4-(1-(trifluoromethyl)cyclopropyl) pyrido[3,2-d]pyrimidine-2,4-diamine] | < 100 | 1000 to 10000 |
| Cc1nc(C)n(-c2ccc(CNc3nc(OC4(C)CC4)c4nc(-c5ccc(OC(F)F)c(S(C)(=O)=O)c5)ccc4n3)cc2)n1 [Example 205, N-(4-(3,5-dimethyl-1H-1,2,4-triazol-1-yl)benzyl)-6-(4-(difluoromethoxy)-3-(methylsulfonyl)phenyl)-4-(1-methylcyclopropoxy)pyrido [3,2-d]pyrimidin-2-amine] | < 100 | > 10000 |
| COCCNc1nc(NCC(F)(F)F)c2nc(-c3cccc(S(C)(=O)=O)c3)ccc2n1 [Example 139, N^2-(2-methoxyethyl)-6-(3-(methylsulfonyl)phenyl)-N^4-(2,2,2-trifluoroethyl)pyrido [3,2-d]pyrimidine-2,4-diamine] | < 100 | > 10000 |
| COc1ccc(-c2ccc3nc(NCc4ccc(F)c(F)c4)nc(NCC(F)(F)F)c3n2)cc1S(N)(=O)=O [Example 234, 5-(2-(3,4-difluorobenzylamino)-4-(2,2,2-trifluoroethylamino)pyrido[3,2-d]pyrimidin-6-yl)-2-methoxybenzenesulfonamide] | < 100 | > 10000 |
| CC#Cc1ccc2nc(N[C@H](C)c3ccc(S(N)(=O)=O)cc3)nc(OC3CCC3)c2n1 [Example 310, (R)-4-(1-(4-cyclobutoxy-6-(prop-1-ynyl)pyrido[3,2-d]pyrimidin-2-ylamino)ethyl) benzenesulfonamide] | < 100 | > 10000 |
| FC(F)(F)CNc1nc(NCc2ccc(-n3cncn3)cc2)nc2ccc(-c3ccc(OC4CC4)nc3)nc12 [Example 246, N^2-(4-(1H-1,2,4-triazol-1-yl)benzyl)-6-(6-cyclopropoxy-pyridin-3-yl)-N^4-(2,2,2-trifluoroethyl)pyrido[3,2-d] pyrimidine-2,4-diamine] | < 100 | > 10000 |
| Fc1ccc(-c2ccc3nc(NCc4ccc(-n5cncn5)cc4)nc(NC4(C(F)(F)F)CC4)c3n2)cc1 [Example 81, N^2-(4-(1H-1,2,4-triazol-1-yl)benzyl)-6-(4-fluorophenyl)-N^4-(1-(trifluoromethyl)cyclopropyl)pyrido[3,2-d] pyrimidine-2,4-diamine] | 250 to 2000 | 1000 to 10000 |
| FC(F)(F)CNc1nc(NCc2ccc(-n3cncn3)cc2)nc2ccc(-c3cnc(OC4CC4)nc3)nc12 [Example 253, N^2-(4-(1H-1,2,4-triazol-1-yl)benzyl)-6-(2-cyclopropoxy-pyrimidin-5-yl)-N^4-(2,2,2-trifluoroethyl)pyrido[3,2-d] pyrimidine-2,4-diamine] | < 100 | > 10000 |
| CC1(Oc2nc(NCc3ccc(-n4cncn4)cc3)nc3ccc(-c4ccc(OC(F)F)c(S(C)(=O)=O)c4)nc23)CC1 [Example 191, N-(4-(1H-1,2,4-triazol-1-yl)benzyl)-6-(4-(difluoro-methoxy)-3-(methylsulfonyl)phenyl)-4-(1-methylcyclo-propoxy)pyrido[3,2-d] pyrimidin-2-amine] | < 100 | > 10000 |
| COc1ccc(-c2ccc3nc(N[C@H](C)c4ccc(-n5cncn5)cc4)nc(NCC(F)(F)F)c3n2)cc1S(C)(=O)=O [Example 150, N^2-((R)-1-(4-(1H-1,2,4-triazol-1-yl)phenyl)ethyl)-6-(4-methoxy-3-(methylsulfonyl)phenyl)-N^4-(2,2,2-trifluoroethyl) pyrido[3,2-d]pyrimidine-2,4-diamine] | < 100 | 1000 to 10000 |
| NS(=O)(=O)c1cc(CNc2nc(NCC(F)(F)F)c3nc(C#CC4CC4)ccc3n2)cc(C(F)(F)F)c1 [Example 278, 3-((6-(2-cyclopropylethynyl)-4-(2,2,2-trifluoroethylamino)pyrido[3,2-d]pyrimidin-2-ylamino)methyl)-5-(trifluoro-methyl)benzenesulfonamide] | 100 to 250 | > 10000 |
| CS(=O)(=O)c1cc(-c2ccc3nc(NCc4ccc(-n5cncn5)cc4)nc(OC4CCC4)c3n2)ccc1OC(F)F [Example 204, N-(4-(1H-1,2,4-triazol-1-yl)benzyl)-4-cyclobutoxy-6-(4-(difluoromethoxy)-3-(methylsulfonyl)phenyl)pyrido [3,2-d]pyrimidin-2-amine] | < 100 | 1000 to 10000 |
| COc1ccc(-c2ccc3nc(NCc4cccc(S(C)(=O)=O)c4)nc(NC4(C(F)(F)F)CC4)c3n2)cc1S(C)(=O)=O [Example 35, N^2-(3-(methylsulfonyl)benzyl)-6-(4-methoxy-3-(methylsulfonyl)phenyl)-N^4-(1-(trifluoromethyl)cyclopropyl) pyrido[3,2-d]pyrimidine-2,4-diamine] | < 100 | 1000 to 10000 |
| CS(=O)(=O)c1cccc(-c2ccc3nc(NCCS(N)(=O)=O)nc(NCC(F)(F)F)c3n2)c1 [Example 137, 2-(6-(3-(methylsulfonyl)phenyl)-4-(2,2,2-trifluoroethylamino)pyrido [3,2-d]pyrimidin-2-ylamino)ethanesulfonamide] | 100 to 250 | > 10000 |
| CS(=O)(=O)c1cccc(CNc2nc(NCC(F)(F)F)c3nc(-c4ccc(OC(F)F)c(S(C)(=O)=O)c4)ccc3n2)c1 [Example 174, N^2-(3-(methylsulfonyl)benzyl)-6-(4-(difluoromethoxy)-3-(methylsulfonyl)phenyl)-N^4-(2,2,2-trifluoroethyl)pyrido [3,2-d]pyrimidine-2,4-diamine] | < 100 | < 1000 |
